Measured values taken from article PMC13195669, “GPR3 Ligands Discovered through Combined Virtual and Conformational Biosensor-Based Screening” (Journal of the American Chemical Society, 2026).

What follows are molecules tested on β2AR (assay: β2AR-HaloTag/Nluc conformational biosensor (negative control) in HEK293A cells). Conditions: β2AR-HaloTag/Nluc as negative control; HEK293A stable.
Type: cell-based, human
Experimental: Initially, all 93 molecules were tested for activity at the GPR3 biosensor at a concentration of 1 μM (Figure a). […] Of the five compounds that emerged from the virtual screen, three–hereafter referred to as virtual hit 1–3, VH1/2/3–were selected for in-house chemical synthesis (compounds 52, 93, and 115; cf. Scheme , Figure S6), providing compounds of ≥99% purity for hit validation (NMR spectra: Figures S7–S142; HPLC purity: Figures S143–S218). For VH1, the racemic mix, rac-VH1/52, was synthesized and used for testing. Compounds 52, VH2/93, and VH3/115 (Figure S6) were then validated with the GPR3 biosensor including β2AR-HaloTag/Nluc as a negative control.
BRET-based GPCR conformational sensor experiments
Cells expressing the conformational GPCR biosensors were grown for 24 h (stable cells) or 48 h (transiently transfected cells) in white 96-well plates and washed with 100 µl of HBSS. After washing, cells were incubated for 2 minutes with a 1/1000 solution of the furimazine stock solution (Promega; cat. no. N1662). Three baseline BRET reads were recorded and averaged prior to the addition of serial dilutions of ligands or veh icle control and subsequent BRET reads. All experiments were con-ducted at 37 °C. BRE T donor emission was quantified with a 470/80 nm monochromator. BRET acceptor emission was quan-tified using a 660/100 nm monochromator. Experiments were carried out using a CLARIOstar plate reader. […]
FRET and BRET ratios were defined as acceptor emission/donor emission. […] To quantify ligand-induced changes ΔFRET and ΔBRET were calculated for each well as a percent over basal ([(Ratiostim − Ratiobasal)/Ratiobasal] × 100). […]
Data from FRET/BRET experiments were fitted using a three-parameter fit. Z-factors expressing the high-throughput suita-bility were calculated with the following equation: […]
Commercially available chemicals and solvents were purchased from standard commercial suppliers (Merck (Darmstadt, Ger-many), Sigma-Aldrich (Munich, Germany), Acros Organics (Geel, Belgium), Alfa Aesar (Karlsruhe, Germany), abcr (Karlsruhe, Germany), BLD Pharmatech (Reinbek, Germany) or TCI Europe (Zwijndrecht, Belgium) and were used as received. Deuter-ated solvents for nuclear magnetic resonance (1H NMR and 13C NMR) spectra were purchased from Deutero GmbH (Kastel-laun, Germany). All reactions carried out with dry solvents were accomplished in dry flasks under nitrogen or argon atmos-phere. For the preparation of buffers, HPLC eluents, and stock solutions millipore water was used. […] The reactions were monitored by thin layer chromatography (TLC) on Merck silica gel 60 F254 aluminium sheets and spots were visualized under UV light at 254 nm, by potassium permanganate or ninhydrin staining. […]
With `N=c1n(Cc2ccccc2)c2ccccc2n1CC1CC1` [compound 33] the “specificity of conformational response for GPR3 vs β2AR-HaloTag/Nluc” value (“specificity … vs β2AR-HaloTag/Nluc” for short) was “selectivity for GPR3 over β2AR”. `Cc1ccc(NC(=O)CN2CCN(C(=O)CCc3ccc(Cl)cc3)CC2)cc1` [compound 115] was tested, and the “specificity … vs β2AR-HaloTag/Nluc” value was “concentration-dependent and GPR3-specific conformational changes”. For `N=c1n(Cc2ccccc2)c2ccccc2n1CC(O)COc1ccc(Cl)cc1` (stereo not drawn) [compound 52], the “specificity … vs β2AR-HaloTag/Nluc” value was “concentration-dependent and GPR3-specific conformational changes”.
